Results as given in PMC5908784, “Extracellular loops 2 and 3 of the calcitonin receptor selectively modify agonist binding and efficacy” (Biochemical Pharmacology, 2018).
Where a chain is given by its changes, count along the chain named. Where a SMILES comes first, the peptide text is derived from it. Bridges are numbered along the chain shown (N, C = ends).

Columns and labels:
Type in all cases: cell-based
[1] = target: T1, hCTR I300A (Homo sapiens, UniProt P30988, I300A); assay: cAMP accumulation; details: mean ± S.E.M.; for Emax: cAMP maximal response, SEM; for EC50: cAMP, CV1-FlpIn cells, 30 min, IBMX
T1 construct: c-Myc (N); expressed in transfected cells
T1 sequence (P30988 25-474 I300A): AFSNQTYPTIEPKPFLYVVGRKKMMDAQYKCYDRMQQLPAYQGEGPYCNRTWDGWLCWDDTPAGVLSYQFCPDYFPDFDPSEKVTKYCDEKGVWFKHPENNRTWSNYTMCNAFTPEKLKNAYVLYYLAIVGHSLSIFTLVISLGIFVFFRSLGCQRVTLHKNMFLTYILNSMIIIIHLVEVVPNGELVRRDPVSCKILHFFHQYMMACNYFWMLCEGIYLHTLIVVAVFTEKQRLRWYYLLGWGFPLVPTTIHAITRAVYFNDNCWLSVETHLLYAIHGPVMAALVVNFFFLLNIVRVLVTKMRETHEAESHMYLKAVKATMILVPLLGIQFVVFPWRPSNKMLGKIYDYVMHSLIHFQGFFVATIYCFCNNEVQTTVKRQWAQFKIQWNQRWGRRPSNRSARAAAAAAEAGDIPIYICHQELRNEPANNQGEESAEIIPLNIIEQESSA
Summary of the method: (§1)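 30 min ligand stimulation with IBMX present; cells seeded overnight beforehand. Ethanol extract, dried at RT.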

[2] = target: T2, hCTR I371A (Homo sapiens, UniProt P30988, I371A); assay: cAMP accumulation; details: mean ± S.E.M.; for Emax: cAMP maximal response, SEM; for EC50: cAMP, CV1-FlpIn cells, 30 min, IBMX
T2 construct: c-Myc (N); expressed in transfected cells
T2 sequence (P30988 25-474 I371A): T1 sequence (P30988 25-474 I300A) with A276I, I347A
Summary of the method: as §1

[3] = target: T3, hCTR P363A (Homo sapiens, UniProt P30988, P363A); assay: IP1 accumulation; details: mean ± S.E.M.; for Emax: IP1 maximal response, SEM
T3 construct: expressed in transfected cells
T3 sequence (P30988 25-474 P363A): T1 sequence (P30988 25-474 I300A) with A276I, P339A
Summary of the method: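 Ligand-induced IP1 (60 min, LiCl) measured by HTRF; normalized to 100 μM ATP response.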

[4] = target: T4, hCTR W290A (Homo sapiens, UniProt P30988, W290A); assay: ERK1/2 phosphorylation; details: CV1-FlpIn cells, mean ± S.E.M.; for Emax: pERK maximal response
T4 construct: c-Myc (N); expressed in transfected cells
T4 sequence (P30988 25-474 W290A): T1 sequence (P30988 25-474 I300A) with W266A, A276I
Summary of the method: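 EC50 and Emax values derive from three-parameter logistic curves and combine functional affinity, efficacy and stimulus-response coupling. Responses are normalized to 10% FBS (6 min).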

EC50 [1] | EC50 [2] | EC50 ([3]; IP1, CV1-FlpIn cells, 60 min, LiCl) | EC50 ([4]; pERK, three-parameter logistic fit) | SMILES | Emax [1] | Emax [2] | Emax [3] | Emax [4]
 |  |  |  | CC[C@H](C)[C@H](NC(=O)[C@H](C)NC(=O)[C@@H](NC(=O)[C@H](CCC(N)=O)NC(=O)[C@@H]1CCCN1C(=O)[C@H](Cc1ccccc1)NC(=O)[C@@H](NC(=O)[C@H](Cc1c[nH]cn1)NC(=O)[C@H](Cc1ccccc1)NC(=O)[C@H](CCCCN)NC(=O)[C@H](CC(N)=O)NC(=O)[C@H](Cc1ccccc1)NC(=O)[C@H](CC(=O)O)NC(=O)[C@H](CCC(N)=O)NC(=O)[C@@H](NC(=O)[C@H](Cc1ccc(O)cc1)NC(=O)[C@@H](NC(=O)CNC(=O)[C@H](CC(C)C)NC(=O)[C@H](CCSC)NC(=O)[C@@H]1CSSC[C@H](N)C(=O)NCC(=O)N[C@@H](CC(N)=O)C(=O)N[C@@H](CC(C)C)C(=O)N[C@@H](CO)C(=O)N[C@@H]([C@@H](C)O)C(=O)N1)[C@@H](C)O)[C@@H](C)O)[C@@H](C)O)[C@@H](C)O)C(=O)NCC(=O)N[C@H](C(=O)NCC(=O)N[C@@H](C)C(=O)N1CCC[C@H]1C(N)=O)C(C)C [hCT] | 116 ± 6% | 24 ± 2.7% |  | 
19.5 nM | 132 nM |  |  | CC(C)C[C@H](NC(=O)CNC(=O)[C@H](C)NC(=O)[C@H](CC(C)C)NC(=O)[C@H](CCCNC(=N)N)NC(=O)[C@H](Cc1cnc[nH]1)NC(=O)[C@@H](NC(=O)[C@@H](NC(=O)[C@@H]1CSSC[C@H](NC(=O)[C@H](C)N)C(=O)N[C@@H](CC(=O)O)C(=O)N[C@@H]([C@@H](C)O)C(=O)N[C@@H](C)C(=O)N[C@@H]([C@@H](C)O)C(=O)N1)C(C)C)[C@@H](C)O)C(=O)N[C@@H](CC(C)C)C(=O)N[C@@H](CO)C(=O)N[C@@H](CCCNC(=N)N)C(=O)N[C@@H](CO)C(=O)NCC(=O)NCC(=O)N[C@H](C(=O)N[C@H](C(=O)N[C@@H](CCCCN)C(=O)N[C@@H](CC(N)=O)C(=O)N[C@@H](CC(N)=O)C(=O)N[C@@H](Cc1ccccc1)C(=O)N[C@H](C(=O)N1CCC[C@H]1C(=O)N[C@H](C(=O)N[C@@H](CC(N)=O)C(=O)N[C@H](C(=O)NCC(=O)N[C@@H](CO)C(=O)N[C@@H](CCCCN)C(=O)N[C@@H](C)C(=O)N[C@@H](Cc1ccccc1)C(N)=O)C(C)C)[C@@H](C)O)C(C)C)C(C)C)C(C)C [hαCGRP] | 73 ± 14% | 58 ± 15% |  | 
0.0501 nM | 0.0794 nM | 6.17 nM | 7.41 nM | CSCC[C@H](NC(=O)CNC(=O)[C@H](CO)NC(=O)[C@H](Cc1ccccc1)NC(=O)[C@H](CCCNC(=N)N)NC(=O)[C@H](Cc1c[nH]cn1)NC(=O)[C@H](Cc1ccccc1)NC(=O)[C@H](CC(N)=O)NC(=O)[C@H](CC(N)=O)NC(=O)[C@H](CC(C)C)NC(=O)[C@H](CC(N)=O)NC(=O)[C@H](CCCNC(=N)N)NC(=O)[C@H](Cc1c[nH]c2ccccc12)NC(=O)[C@H](Cc1ccc(O)cc1)NC(=O)[C@H](C)NC(=O)[C@H](CO)NC(=O)[C@H](CC(C)C)NC(=O)[C@@H](NC(=O)[C@@H]1CSSC[C@H](N)C(=O)N[C@@H](CO)C(=O)N[C@@H](CC(N)=O)C(=O)N[C@@H](CC(C)C)C(=O)N[C@@H](CO)C(=O)N[C@@H]([C@@H](C)O)C(=O)N1)C(C)C)C(=O)NCC(=O)N[C@@H](Cc1ccccc1)C(=O)NCC(=O)N1CCC[C@H]1C(=O)N[C@@H](CCC(=O)O)C(=O)N[C@H](C(=O)N1CCC[C@H]1C(N)=O)[C@@H](C)O [pCT] (H-CSNLSTCVLSAYWRNLNNFHRFSGMGFGPETP-NH2; disulfide 1-7) | 117 ± 11% | 35 ± 5% | 73 ± 10% | 28 ± 3%
 |  |  |  | CC(C)C[C@H](NC(=O)[C@H](CC(N)=O)NC(=O)[C@H](CC(N)=O)NC(=O)[C@H](CO)NC(=O)[C@H](CO)NC(=O)[C@H](CCCNC(=N)N)NC(=O)[C@@H](NC(=O)[C@H](CC(C)C)NC(=O)[C@H](Cc1ccccc1)NC(=O)[C@H](CC(N)=O)NC(=O)[C@H](C)NC(=O)[C@H](CC(C)C)NC(=O)[C@H](CCCNC(=N)N)NC(=O)[C@H](CCC(N)=O)NC(=O)[C@@H](NC(=O)[C@H](C)NC(=O)[C@@H]1CSSC[C@H](NC(=O)[C@@H](N)CCCCN)C(=O)N[C@@H](CC(N)=O)C(=O)N[C@@H]([C@@H](C)O)C(=O)N[C@@H](C)C(=O)N[C@@H]([C@@H](C)O)C(=O)N1)[C@@H](C)O)C(C)C)C(=O)NCC(=O)N1CCC[C@H]1C(=O)N[C@H](C(=O)N[C@@H](CC(C)C)C(=O)N1CCC[C@H]1C(=O)N1CCC[C@H]1C(=O)N[C@H](C(=O)N[C@@H](CC(N)=O)C(=O)N[C@H](C(=O)NCC(=O)N[C@@H](CO)C(=O)N[C@@H](CC(N)=O)C(=O)N[C@H](C(=O)N[C@@H](Cc1ccc(O)cc1)C(N)=O)[C@@H](C)O)C(C)C)[C@@H](C)O)C(C)C [rAmy] | 109 ± 10% | 47 ± 7% |  | 
 |  |  |  | CC(C)C[C@H](NC(=O)[C@H](CCCCN)NC(=O)CNC(=O)[C@H](CC(C)C)NC(=O)[C@@H](NC(=O)[C@@H]1CSSC[C@H](N)C(=O)N[C@@H](CO)C(=O)N[C@@H](CC(N)=O)C(=O)N[C@@H](CC(C)C)C(=O)N[C@@H](CO)C(=O)N[C@@H]([C@@H](C)O)C(=O)N1)C(C)C)C(=O)N[C@@H](CO)C(=O)N[C@@H](CCC(N)=O)C(=O)N[C@@H](CCC(=O)O)C(=O)N[C@@H](CC(C)C)C(=O)N[C@@H](Cc1c[nH]cn1)C(=O)N[C@@H](CCCCN)C(=O)N[C@@H](CC(C)C)C(=O)N[C@@H](CCC(N)=O)C(=O)N[C@H](C(=O)N[C@@H](Cc1ccc(O)cc1)C(=O)N1CCC[C@H]1C(=O)N[C@@H](CCCNC(=N)N)C(=O)N[C@H](C(=O)N[C@@H](CC(N)=O)C(=O)N[C@H](C(=O)NCC(=O)N[C@@H](CO)C(=O)NCC(=O)N[C@H](C(=O)N1CCC[C@H]1C(N)=O)[C@@H](C)O)[C@@H](C)O)[C@@H](C)O)[C@@H](C)O [sCT] | 113 ± 11% | 28 ± 2% | 86 ± 9% | 38 ± 4%
